Patent US8795984B2, “Production of glycoproteins with reduced O-glycosylation” (Merck Sharp & Dohme Corp., priority 2005, dated 2014)

Columns and labels:
[1] = test system: O-glycosylation of secreted recombinant reporter proteins; experiment: Western blot of His-tagged Kringle 1-3 protein in growth media (FIG. 1); assay type: cell-based, Pichia pastoris; conditions: yJC53 treated with 2 or 20 μM, compared with pmt1Δ strain yJC55
Protocol: Kringle 1-3 protein expression for the transformed yeast strains was carried out at in shake flasks at 24° C. with buffered glycerol-complex medium (BMGY) consisting of 1% yeast extract, 2% peptone, 100 mM potassium phosphate buffer pH 6.0, 1.34% yeast nitrogen base, 4×10-5% biotin, and 1% glycerol. The induction medium for protein expression was buffered methanol-complex medium (BMMY) consisting of 1% methanol instead of glycerol in BMGY. Pmt inhibitor Pmti-1, Pmti-2, or Pmti-3 in methanol was added to the growth medium to a final concentration of 0.2 μM, 2 μM, or 20 μM at the time the induction medium was added. Cells were harvested and centrifuged at 2,000 rpm for five minutes. The Pmt inhibitors Pmti-1, Pmti-2, and Pmti-3 are essentially interchangeable, with small variations in ease of use. […]

[2] = Solubility in the cell culture conditions; assay type: physicochemical; conditions: in the cell culture conditions described (BMGY/BMMY)
Protocol: Kringle 1-3 protein expression for the transformed yeast strains was carried out at in shake flasks at 24° C. with buffered glycerol-complex medium (BMGY) consisting of 1% yeast extract, 2% peptone, 100 mM potassium phosphate buffer pH 6.0, 1.34% yeast nitrogen base, 4×10-5% biotin, and 1% glycerol. The induction medium for protein expression was buffered methanol-complex medium (BMMY) consisting of 1% methanol instead of glycerol in BMGY. Pmt inhibitor Pmti-1, Pmti-2, or Pmti-3 in methanol was added to the growth medium to a final concentration of 0.2 μM, 2 μM, or 20 μM at the time the induction medium was added. Cells were harvested and centrifuged at 2,000 rpm for five minutes. The Pmt inhibitors Pmti-1, Pmti-2, and Pmti-3 are essentially interchangeable, with small variations in ease of use.

| solubility [2] | SMILES | O-glycosylation of Kringle 1-3 protein on Western blot [1] |
| --- | --- | --- |
| – | O=C(O)CN1C(=O)C(=Cc2ccc(OCc3ccccc3)c(OCc3ccccc3)c2)SC1=S [Pmti-1, 5-[[3,4-bis(phenylmethoxy)phenyl]methylene]-4-oxo-2-thioxo-3-thiazolidineacetic Acid] | reduced O-glycosylation to a level similar to that observed in a strain lacking Pmt1 |
| greater than that of Pmti-1 and Pmti-2 | O=C(O)CN1C(=O)/C(=C/c2ccc(OCCc3ccccc3)c(OC(CO)c3ccccc3)c2)SC1=S (centres unmarked) [Pmti-3] | – |
